Assay results from article PMC8799717, “Pharmacological targeting PIKfyve and tubulin as an effective treatment strategy for double-hit lymphoma” (Cell Death Discovery, 2022).

Tests used:
Experiment in all cases: biochemical
Set-up in all cases: KINOMEscan active-site-directed competition binding panel, 468 kinases, percent of DMSO control at 1 uM
Details in all cases: KINOMEscan binding, percent of DMSO control; read-out: Ctrl%
[1] = biological target: T1, RPS6KA4(Kin.Dom.2-C-terminal) (Homo sapiens, UniProt O75676)
T1 construct: Kin.Dom.2-C-terminal

STK35 = STK35 (Homo sapiens, UniProt Q8TDR2)
FLT4 = FLT4 (Homo sapiens, UniProt P35916)
HIPK4 = HIPK4 (Homo sapiens, UniProt Q8NE63)
HIPK4, sequence (Q8NE63 whole entry): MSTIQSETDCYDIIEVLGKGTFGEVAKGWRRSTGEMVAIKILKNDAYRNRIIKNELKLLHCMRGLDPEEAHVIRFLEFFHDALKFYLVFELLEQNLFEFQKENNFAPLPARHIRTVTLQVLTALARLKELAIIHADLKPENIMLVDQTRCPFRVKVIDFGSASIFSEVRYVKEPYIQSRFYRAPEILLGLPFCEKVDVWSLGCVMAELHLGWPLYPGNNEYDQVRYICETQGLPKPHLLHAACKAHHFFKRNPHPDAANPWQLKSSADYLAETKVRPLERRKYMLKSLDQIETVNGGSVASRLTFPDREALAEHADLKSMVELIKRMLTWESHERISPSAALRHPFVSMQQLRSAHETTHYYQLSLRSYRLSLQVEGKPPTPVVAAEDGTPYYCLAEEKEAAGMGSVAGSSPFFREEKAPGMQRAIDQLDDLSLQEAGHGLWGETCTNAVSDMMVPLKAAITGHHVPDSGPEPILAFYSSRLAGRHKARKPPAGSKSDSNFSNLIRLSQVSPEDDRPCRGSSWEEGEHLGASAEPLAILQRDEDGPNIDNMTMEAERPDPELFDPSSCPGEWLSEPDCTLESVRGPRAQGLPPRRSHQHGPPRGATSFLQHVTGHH

AMPK-alpha2 = biological target: T2, AMPK-alpha2 (Homo sapiens, UniProt P54646)
T2 construct: gene PRKAA2

[2] = biological target: T3, ABL1(H396P)-phosphorylated (Homo sapiens, UniProt P00519, H396P)
T3 construct: phosphorylated

EIF2AK1 = EIF2AK1 (Homo sapiens, UniProt Q9BQI3)
FLT3(ITD) = FLT3(ITD) (Homo sapiens, UniProt P36888, ITD)
ACVR2B = ACVR2B (Homo sapiens, UniProt Q13705)
YSK4 = biological target: T4, YSK4 (Homo sapiens, UniProt Q56UN5)
T4 construct: gene MAP3K19

ERK1 = biological target: T5, ERK1 (Homo sapiens, UniProt P27361)
T5 construct: gene MAPK3
T5 sequence (P27361 whole entry): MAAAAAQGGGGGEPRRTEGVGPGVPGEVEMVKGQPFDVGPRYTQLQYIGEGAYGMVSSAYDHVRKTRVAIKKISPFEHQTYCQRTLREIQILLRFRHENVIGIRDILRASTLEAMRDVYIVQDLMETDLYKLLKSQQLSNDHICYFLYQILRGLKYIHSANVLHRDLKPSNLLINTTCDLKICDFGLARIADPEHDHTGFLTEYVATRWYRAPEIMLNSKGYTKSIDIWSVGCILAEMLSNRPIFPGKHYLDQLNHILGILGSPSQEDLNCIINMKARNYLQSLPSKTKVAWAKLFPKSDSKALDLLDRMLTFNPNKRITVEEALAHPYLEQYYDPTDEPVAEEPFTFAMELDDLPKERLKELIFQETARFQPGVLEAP

NDR1 = biological target: T6, NDR1 (Homo sapiens, UniProt Q15208)
T6 construct: gene STK38

RIPK1 = RIPK1 (Homo sapiens, UniProt Q13546)
RIPK1, sequence (Q13546 whole entry): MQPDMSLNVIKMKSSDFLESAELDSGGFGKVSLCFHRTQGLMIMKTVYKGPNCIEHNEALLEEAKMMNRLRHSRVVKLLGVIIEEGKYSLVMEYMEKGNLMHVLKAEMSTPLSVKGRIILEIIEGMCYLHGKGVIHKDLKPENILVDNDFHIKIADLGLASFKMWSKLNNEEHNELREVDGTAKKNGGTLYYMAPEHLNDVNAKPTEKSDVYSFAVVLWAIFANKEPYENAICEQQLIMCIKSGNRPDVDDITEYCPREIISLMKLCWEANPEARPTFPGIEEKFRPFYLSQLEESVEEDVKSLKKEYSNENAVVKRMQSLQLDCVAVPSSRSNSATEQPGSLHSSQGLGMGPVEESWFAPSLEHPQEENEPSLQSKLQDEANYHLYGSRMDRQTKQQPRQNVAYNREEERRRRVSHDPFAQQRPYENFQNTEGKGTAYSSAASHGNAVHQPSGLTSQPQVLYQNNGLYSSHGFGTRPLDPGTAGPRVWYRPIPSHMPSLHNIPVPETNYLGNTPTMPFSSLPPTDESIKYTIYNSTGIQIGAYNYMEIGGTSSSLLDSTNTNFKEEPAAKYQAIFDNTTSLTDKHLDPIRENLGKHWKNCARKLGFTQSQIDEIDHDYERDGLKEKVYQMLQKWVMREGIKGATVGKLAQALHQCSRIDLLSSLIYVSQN

INSRR = INSRR (Homo sapiens, UniProt P14616)
DMPK2 = biological target: T7, DMPK2 (Homo sapiens, UniProt Q6DT37)
T7 construct: gene CDC42BPG

PDGFRB = PDGFRB (Homo sapiens, UniProt P09619)
SRC = SRC (Homo sapiens, UniProt P12931)
SRC, sequence (P12931 whole entry): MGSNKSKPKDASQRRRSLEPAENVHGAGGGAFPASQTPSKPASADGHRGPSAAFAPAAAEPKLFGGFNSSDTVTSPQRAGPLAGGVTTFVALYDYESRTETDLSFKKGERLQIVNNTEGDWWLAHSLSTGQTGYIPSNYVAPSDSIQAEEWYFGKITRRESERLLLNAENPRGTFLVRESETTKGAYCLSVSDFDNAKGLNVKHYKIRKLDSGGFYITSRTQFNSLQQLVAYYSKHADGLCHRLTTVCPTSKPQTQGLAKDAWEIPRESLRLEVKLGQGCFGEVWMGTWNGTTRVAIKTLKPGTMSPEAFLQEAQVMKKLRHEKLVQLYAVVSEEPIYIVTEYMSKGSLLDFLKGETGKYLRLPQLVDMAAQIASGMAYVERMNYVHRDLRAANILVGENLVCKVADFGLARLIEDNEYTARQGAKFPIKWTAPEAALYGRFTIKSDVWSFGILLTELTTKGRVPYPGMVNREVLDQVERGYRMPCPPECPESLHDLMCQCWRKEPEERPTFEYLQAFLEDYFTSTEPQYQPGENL

EPHB2 = EPHB2 (Homo sapiens, UniProt P29323)
ABL1-nonphosphorylated = biological target: T8, ABL1-nonphosphorylated (Homo sapiens, UniProt P00519)
T8 construct: nonphosphorylated

PHKG2 = PHKG2 (Homo sapiens, UniProt P15735)
PHKG2, sequence (P15735 whole entry): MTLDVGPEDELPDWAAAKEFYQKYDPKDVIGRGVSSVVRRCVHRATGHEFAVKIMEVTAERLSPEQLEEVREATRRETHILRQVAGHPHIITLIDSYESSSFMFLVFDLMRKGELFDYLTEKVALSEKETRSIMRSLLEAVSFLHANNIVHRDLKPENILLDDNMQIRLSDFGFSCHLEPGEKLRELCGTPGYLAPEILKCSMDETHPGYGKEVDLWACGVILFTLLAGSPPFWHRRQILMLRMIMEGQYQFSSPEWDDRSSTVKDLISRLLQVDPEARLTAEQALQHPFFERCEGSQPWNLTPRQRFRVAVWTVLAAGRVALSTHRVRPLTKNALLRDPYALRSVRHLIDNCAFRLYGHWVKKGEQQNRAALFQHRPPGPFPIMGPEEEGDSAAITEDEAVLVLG

EGFR(L858R) = EGFR(L858R) (Homo sapiens, UniProt P00533, L858R)
EGFR(L858R), sequence (P00533 whole entry L858R): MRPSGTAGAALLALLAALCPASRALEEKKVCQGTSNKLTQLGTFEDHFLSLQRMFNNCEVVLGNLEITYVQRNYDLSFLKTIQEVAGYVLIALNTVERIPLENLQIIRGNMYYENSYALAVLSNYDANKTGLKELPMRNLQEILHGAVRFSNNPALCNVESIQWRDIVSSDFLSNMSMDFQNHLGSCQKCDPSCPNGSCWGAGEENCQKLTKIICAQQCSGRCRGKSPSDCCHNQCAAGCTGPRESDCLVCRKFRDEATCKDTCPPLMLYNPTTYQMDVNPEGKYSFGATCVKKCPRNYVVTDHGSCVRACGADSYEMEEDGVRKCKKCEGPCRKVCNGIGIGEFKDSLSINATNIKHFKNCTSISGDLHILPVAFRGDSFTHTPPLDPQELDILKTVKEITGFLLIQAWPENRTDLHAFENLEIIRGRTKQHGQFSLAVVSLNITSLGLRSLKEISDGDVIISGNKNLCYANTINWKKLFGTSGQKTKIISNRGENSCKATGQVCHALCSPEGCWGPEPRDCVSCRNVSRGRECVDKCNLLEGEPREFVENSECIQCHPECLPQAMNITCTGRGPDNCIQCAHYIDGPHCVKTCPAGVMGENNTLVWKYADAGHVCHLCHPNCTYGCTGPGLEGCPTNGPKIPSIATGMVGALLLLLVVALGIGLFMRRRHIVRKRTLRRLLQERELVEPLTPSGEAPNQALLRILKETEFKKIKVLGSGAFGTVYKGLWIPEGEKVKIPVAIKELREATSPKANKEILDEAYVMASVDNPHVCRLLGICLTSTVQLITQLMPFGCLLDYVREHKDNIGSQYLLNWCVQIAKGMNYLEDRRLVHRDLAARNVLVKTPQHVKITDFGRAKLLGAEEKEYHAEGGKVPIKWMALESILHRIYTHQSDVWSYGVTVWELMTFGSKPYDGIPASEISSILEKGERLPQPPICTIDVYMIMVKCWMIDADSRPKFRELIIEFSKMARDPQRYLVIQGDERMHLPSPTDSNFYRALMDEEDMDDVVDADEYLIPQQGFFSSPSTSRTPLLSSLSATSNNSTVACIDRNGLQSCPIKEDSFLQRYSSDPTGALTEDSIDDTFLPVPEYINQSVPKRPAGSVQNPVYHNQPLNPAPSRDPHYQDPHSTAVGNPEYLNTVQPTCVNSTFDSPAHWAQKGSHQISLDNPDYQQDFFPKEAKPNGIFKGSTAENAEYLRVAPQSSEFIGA

MYO3A = MYO3A (Homo sapiens, UniProt Q8NEV4)
CSF1R = CSF1R (Homo sapiens, UniProt P07333)
CSF1R, sequence (P07333 whole entry): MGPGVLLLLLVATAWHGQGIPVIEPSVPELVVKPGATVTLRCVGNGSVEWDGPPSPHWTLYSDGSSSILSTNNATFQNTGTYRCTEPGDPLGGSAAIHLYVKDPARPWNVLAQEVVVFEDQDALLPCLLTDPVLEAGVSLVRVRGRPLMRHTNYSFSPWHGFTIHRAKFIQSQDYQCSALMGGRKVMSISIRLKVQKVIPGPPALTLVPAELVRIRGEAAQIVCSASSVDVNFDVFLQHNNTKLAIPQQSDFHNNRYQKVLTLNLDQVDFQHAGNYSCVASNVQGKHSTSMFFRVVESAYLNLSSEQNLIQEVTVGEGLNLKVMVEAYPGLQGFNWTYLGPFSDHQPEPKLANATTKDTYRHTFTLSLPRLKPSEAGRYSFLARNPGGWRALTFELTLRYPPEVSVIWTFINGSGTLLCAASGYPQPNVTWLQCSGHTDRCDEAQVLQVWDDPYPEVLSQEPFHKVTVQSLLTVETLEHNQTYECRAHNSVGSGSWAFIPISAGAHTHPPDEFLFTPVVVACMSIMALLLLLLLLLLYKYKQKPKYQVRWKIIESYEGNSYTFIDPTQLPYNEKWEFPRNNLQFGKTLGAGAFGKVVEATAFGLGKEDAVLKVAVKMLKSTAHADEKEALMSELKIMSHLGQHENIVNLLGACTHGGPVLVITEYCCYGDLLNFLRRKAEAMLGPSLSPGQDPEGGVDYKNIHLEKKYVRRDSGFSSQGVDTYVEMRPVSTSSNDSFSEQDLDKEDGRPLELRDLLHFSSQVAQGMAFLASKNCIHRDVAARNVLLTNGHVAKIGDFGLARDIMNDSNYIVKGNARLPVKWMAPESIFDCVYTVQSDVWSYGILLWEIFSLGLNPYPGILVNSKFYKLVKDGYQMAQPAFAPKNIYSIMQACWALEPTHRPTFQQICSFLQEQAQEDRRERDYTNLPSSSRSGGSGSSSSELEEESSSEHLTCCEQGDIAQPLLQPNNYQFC

Cc1ccc(NC(=O)c2cccc(C(F)(F)F)c2)cc1Nc1cc(-c2cccnc2)nc2[nH]ccc12 [HZX-02-059]
remaining binding at 1 µM [1]: 97% | remaining binding at 1 µM (STK35): 80% | remaining binding at 1 µM (FLT4): 94% | remaining binding at 1 µM (HIPK4): 86% | remaining binding at 1 µM (AMPK-alpha2): 90% | remaining binding at 1 µM [2]: 84% | remaining binding at 1 µM (EIF2AK1): 79% | remaining binding at 1 µM (FLT3(ITD)): 79% | remaining binding at 1 µM (ACVR2B): 71% | remaining binding at 1 µM (YSK4): 100% | remaining binding at 1 µM (ERK1): 99% | remaining binding at 1 µM (NDR1): 100% | remaining binding at 1 µM (RIPK1): 100% | remaining binding at 1 µM (INSRR): 100% | remaining binding at 1 µM (DMPK2): 99% | remaining binding at 1 µM (PDGFRB): 3.3% | remaining binding at 1 µM (SRC): 78% | remaining binding at 1 µM (EPHB2): 4.7% | remaining binding at 1 µM (ABL1-nonphosphorylated): 14% | remaining binding at 1 µM (PHKG2): 92% | remaining binding at 1 µM (EGFR(L858R)): 87% | remaining binding at 1 µM (MYO3A): 91% | remaining binding at 1 µM (CSF1R): 6.1%
